Test [1] has as its target T1, KRAS G12C::SOS1 (Homo sapiens, UniProt Q07889).
T1 construct: purchased CISBIO 64KRASG12PEH
T1 sequence (Q07889 1-1333): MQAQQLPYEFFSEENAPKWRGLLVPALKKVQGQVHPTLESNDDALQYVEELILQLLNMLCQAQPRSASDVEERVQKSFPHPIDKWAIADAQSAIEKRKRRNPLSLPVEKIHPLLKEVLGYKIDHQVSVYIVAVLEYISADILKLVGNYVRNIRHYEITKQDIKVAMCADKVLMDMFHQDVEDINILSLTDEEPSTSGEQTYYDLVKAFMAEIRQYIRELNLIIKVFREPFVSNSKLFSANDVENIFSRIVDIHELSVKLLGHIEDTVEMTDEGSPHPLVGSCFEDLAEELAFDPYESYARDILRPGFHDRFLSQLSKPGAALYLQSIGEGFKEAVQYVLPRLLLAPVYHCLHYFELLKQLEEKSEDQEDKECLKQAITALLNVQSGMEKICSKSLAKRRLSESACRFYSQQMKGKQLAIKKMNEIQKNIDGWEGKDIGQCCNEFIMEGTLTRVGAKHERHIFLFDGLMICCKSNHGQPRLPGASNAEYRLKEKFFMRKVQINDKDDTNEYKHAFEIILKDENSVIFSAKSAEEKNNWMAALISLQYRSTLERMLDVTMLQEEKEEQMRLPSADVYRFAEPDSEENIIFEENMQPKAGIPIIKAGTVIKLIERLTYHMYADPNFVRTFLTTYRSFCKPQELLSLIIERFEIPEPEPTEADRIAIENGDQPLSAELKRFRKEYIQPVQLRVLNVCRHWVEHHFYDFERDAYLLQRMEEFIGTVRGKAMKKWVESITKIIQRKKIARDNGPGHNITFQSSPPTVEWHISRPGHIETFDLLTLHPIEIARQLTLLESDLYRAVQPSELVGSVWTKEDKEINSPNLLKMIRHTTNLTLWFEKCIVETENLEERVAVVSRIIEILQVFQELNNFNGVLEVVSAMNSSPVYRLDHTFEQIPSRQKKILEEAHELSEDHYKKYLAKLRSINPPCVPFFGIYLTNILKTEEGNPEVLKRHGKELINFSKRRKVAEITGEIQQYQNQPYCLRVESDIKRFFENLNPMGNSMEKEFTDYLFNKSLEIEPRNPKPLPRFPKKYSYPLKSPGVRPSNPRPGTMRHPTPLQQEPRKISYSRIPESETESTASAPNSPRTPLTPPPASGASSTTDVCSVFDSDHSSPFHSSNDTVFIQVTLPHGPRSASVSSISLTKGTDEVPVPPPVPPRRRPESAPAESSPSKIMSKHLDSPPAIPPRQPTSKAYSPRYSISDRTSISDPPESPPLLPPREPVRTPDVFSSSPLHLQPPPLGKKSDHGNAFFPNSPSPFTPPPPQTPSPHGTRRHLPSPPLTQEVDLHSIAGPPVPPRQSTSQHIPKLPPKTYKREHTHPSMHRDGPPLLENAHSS
Put plainly: KRAS G12C::SOS1 protein-protein interaction (PPI) inhibition assay (HTRF). The format is binding. The method, then:
Protein-protein interaction between SOS1 and KRAS^G12c was detected using KRAS G12C/SOS1 binding kit from CISBIO (64KRASG12PEH, CISBIO, FRANCE) according to the manufacturer's assay method. Briefly, the maximum concentration of an inhibitor sample was set to be 3 µM, and the inhibitor sample was diluted 7 times by 1/3, and samples having a total of 8 concentrations were prepared. In HTRF (Homogeneous Time-Resolved Fluorescence) exclusive 96-well low-volume white plate (66PL96005, CISBIO, FRANCE), 2 µL of an inhibitor sample prepared for each concentration, 5 µL of a mixed solution of Tag1 labeled KRAS^G12c protein and GTP diluted with the dilution solution provided by the manufacturer, and 5 µL of Tag2 labeled SOS1 protein were mixed, and added with 8 µL of a diluted solution where anti-Tag1 KRAS^G12C XL665 (HTRF acceptor) labeled antibody and anti-Tag2 SOS1 Terbium cryptate (HTRF donor) labeled antibody were mixed in an equal ratio and cultured at room temperature for 2 h.
For orientation: Time-resolved FRET reads energy transfer from a long-lived donor to a nearby acceptor.

Test [2] deals with T2, SOS1 (Homo sapiens, UniProt Q07889).
T2 construct: HIS-SOS1cat (160 nM; Cytoskeleton, US); His (N); purchased Cytoskeleton
T2 sequence (Q07889 564-1049 limits assumed): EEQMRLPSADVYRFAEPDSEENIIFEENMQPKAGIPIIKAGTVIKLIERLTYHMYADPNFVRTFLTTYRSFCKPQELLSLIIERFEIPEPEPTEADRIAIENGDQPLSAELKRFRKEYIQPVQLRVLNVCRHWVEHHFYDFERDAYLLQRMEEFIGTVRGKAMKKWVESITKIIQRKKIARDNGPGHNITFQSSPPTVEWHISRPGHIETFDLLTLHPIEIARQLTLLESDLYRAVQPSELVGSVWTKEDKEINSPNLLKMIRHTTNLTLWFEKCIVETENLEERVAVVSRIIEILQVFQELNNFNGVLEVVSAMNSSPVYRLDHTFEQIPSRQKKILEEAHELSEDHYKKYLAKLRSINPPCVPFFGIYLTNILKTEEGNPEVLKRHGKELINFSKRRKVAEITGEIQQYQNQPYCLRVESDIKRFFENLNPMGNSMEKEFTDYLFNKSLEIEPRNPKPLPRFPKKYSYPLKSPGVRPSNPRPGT
Kind of test: SOS-catalyzed nucleotide exchange assay (HTRF, SOS1-mediated GTP loading of KRAS G12D). The format is biochemical. The protocol: SOS1 activity was measured by SOS1-mediated GTP loading quantification of KRAS^G12D. GTP loaded KRAS^G12D was detected by HTRF (Homogeneous Time Resolved Fluorescence) using anti-GST terbium (Cisbio, France) as a donor and a fluorescence GTP analogue (EDA-GTP-DY-647P1, [DY-647P1 labeled 2'/3'-O-(2-aminoethyl-carbamoyl)guanosine-5'-triphosphate (Jena bioscience, Germany)]) as an acceptor.
KRAS^G12D working solution was prepared by adding equal amounts of GST-KRAS^G12D (100 nM) and anti-GST-terbium (2 nM; Cisbio, France) to the assay buffer and culturing on ice for 10 minutes. […] Control solution was prepared by adding equal volumes of EDA-GTP-DY-647P1 and the assay buffer for normalization control to exclude GEF-independent GTP loading and background signals.
10 uL of the KRAS^G12D solution was added to each well and incubated for 30 minutes at room temperature while shaking. HTRF was measured using a Thermo Varioskan (excitation 334 nm, emission 665 nm). The IC50 of each inhibitor was analyzed using Graphad Prism.

Where [3] appears, read: 8 concentrations from 3 µM, three replicates; read-out: KRAS G12C::SOS1 PPI.
Where [4] appears, read: GST-KRAS G12D, HIS-SOS1cat, compound 128 pM to 10 µM; read-out: SOS-catalyzed nucleotide exchange assay.

The text below walks through data of patent EP4667464A1 (Cyrus Therapeutics Inc., priority 2023, dated 2024).

Where two headings read alike, the source gives them in different places.

Regarding `[2H]C([2H])([2H])[C@@H](NC(=O)c1ccc(=O)n(-c2cncc(-c3cnnn3C([2H])([2H])[2H])c2)n1)c1cccc(C(F)(F)F)c1F` [Example 1-36, N-{(R)-1-[2-fluoro-3-(trifluoromethyl)phenyl]-ethyl-(2,2,2-trideuterio)}-1-(5-{1-[trideuteriomethyl]-1H-1,2,3-triazol-5-yl}-3-pyridyl)-6-oxo-1,6-dihydropyridazine-3-carboxamide], the IC50 was 50 to 150 nM in test [1] (setting [3]) and under 50 nM in test [2] (setting [4]).
The matching figures for `[2H]c1cc(C(=O)N[C@H](C)c2cccc(C(F)(F)F)c2F)nn(-c2cncc(-c3cnnn3C)c2)c1=O` [Example 1-38, N-{(R)-1-[2-fluoro-3-(trifluoromethyl)phenyl]ethyl}-1-[5-(1-methyl-1H-1,2,3-triazol-5-yl)-3-pyridyl]-6-oxo-1,6-dihydropyridazine-5-deuterio-3-carboxamide]: under 50 nM and 50 to 150 nM.
In the same order, the values of `CCc1cc(C(=O)N[C@H](C)c2cccc(C(F)(F)CO)c2F)nn(-c2cncc(-c3cnnn3C(C)C)c2)c1=O` [Example 1-41, N-{(R)-1-[3-(1,1-difluoro-2-hydroxyethyl)-2-fluorophenyl]ethyl}-5-ethyl-1-[5-(1-isopropyl-1H-1,2,3-triazol-5-yl)-3-pyridyl]-6-oxo-1,6-dihydropyridazine-3-carboxamide] are under 50 nM and under 50 nM.
The matching figures for `[2H]c1cc(C(=O)N[C@H](C)c2cccc(C(F)(F)CO)c2F)nn(-c2cncc(-c3cnnn3C3CC3)c2)c1=O` [Example 1-43]: under 50 nM and under 50 nM.
Regarding `C[C@@H](NC(=O)c1ccc(=O)n(-c2cncc(-c3cnnn3C)n2)c1)c1cccc(C(F)(F)F)c1F` [Example 1-48, N-{(R)-1-[2-fluoro-3-(trifluoromethyl)phenyl]ethyl}-1-[6-(1-methyl-1H-1,2,3-triazol-5-yl)pyrazin-2-yl]-6-oxo-1,6-dihydropyridine-3-carboxamide], the IC50 in test [1] (setting [3]) and in test [2] (setting [4]) was over 150 nM each time.
With `CC(C)n1nncc1-c1cncc(-n2nc(C(=O)N[C@H](C)c3cccc(C(F)(F)F)c3F)ccc2=O)c1` [Example 1-49, N-[(1R)-1-[2-fluoro-3-(trifluoromethyl)phenyl]ethyl]-1-[5-(3-isopropyltriazol-4-yl)-3-pyridyl]-6-oxo-pyridazine-3-carboxamide], the IC50 in test [1] (read-out: KRAS G12C::SOS1 PPI; 8 concentrations from 3 µM, three replicates) is under 50 nM; in test [2] (read-out: SOS-catalyzed nucleotide exchange assay; GST-KRAS G12D, HIS-SOS1cat, compound 128 pM to 10 µM), 50 to 150 nM.
For the compound `C[C@@H](NC(=O)c1ccc(=O)n(-c2cncc(-c3cnnn3C3CC3)c2)n1)c1cccc(C(F)F)c1F` [Example 1-51, N-[(1R)-1-[3-(difluoromethyl)-2-fluorophenyl]ethyl]-1-[5-(1-cyclopropyl-1H-1,2,3-triazol-5-yl)-3-pyridyl]-6-oxo-pyridazine-3-carboxamide], the IC50 is 50 to 150 nM in test [1] (setting [3]) and under 50 nM in test [2] (setting [4]).
Turning to `C[C@@H](NC(=O)c1ccc(=O)n(-c2cncc(-c3cnnn3C3CCC3)c2)n1)c1cccc(C(F)(F)CO)c1F` [Example 1-55, 1-[5-(1-cyclobutyl-1H-1,2,3-triazol-5-yl)-3-pyridyl]-N-[(1R)-1-[3-(1,1-difluoro-2-hydroxy-ethyl)-2-fluoro-phenyl]ethyl]-6-oxo-pyridazine-3-carboxamide], the IC50 in test [1] (setting [3]) and in test [2] (setting [4]) was under 50 nM in each case.
As for `C[C@@H](NC(=O)c1ccc(=O)n(-c2cncc(-c3cnnn3C3CC3)c2)n1)c1cc(N)cc(C(F)(F)F)c1` [Example 1-56, 1-[5-(1-cyclopropyl-1H-1,2,3-triazol-5-yl)-3-pyridyl]-6-oxo-N-[(1R)-1-[3-amino-5-(trifluoromethyl)phenyl]ethyl]pyridazine-3-carboxamide], the IC50 in test [1] (setting [3]) and in test [2] (setting [4]) was under 50 nM each time.
`C[C@@H](NC(=O)c1ccc(=O)n(-c2cncc(-c3cnnn3C3COC3)c2)n1)c1cccc(C(F)(F)F)c1F` [Example 1-57, 1-[5-[1-(oxetan-3-yl)triazol-5-yl]-3-pyridyl]-6-oxo-N-[(1R)-1-[2-fluoro-3-(trifluoromethyl)phenyl]ethyl]pyridazine-3-carboxamide]: the IC50 was 50 to 150 nM in test [1] (setting [3]) and under 50 nM in test [2] (setting [4]).
The matching figures for `C[C@@H](NC(=O)c1cc(C(C)(C)O)c(=O)n(-c2cncc(-c3cnnn3C)c2)n1)c1cccc(C(F)(F)F)c1F` [Example 1-59, (R)-N-(1-(2-fluoro-3-(trifluoromethyl)phenyl)ethyl)-5-(2-hydroxypropane-2-yl)-1-(5-(1-methyl-1H-1,2,3-triazol-5-yl)pyridin-3-yl)-6-oxo-1,6-dihydropyridazine-3-carboxamide]: 50 to 150 nM and under 50 nM.
In the same order, the values of `[2H]C([2H])([2H])[C@@H](NC(=O)c1ccc(=O)n(-c2cncc(-c3cnnn3C3CC3)c2)n1)c1cccc(C(F)(F)CO)c1F` [Example 1-60, 1-[5-(1-cyclopropyl-1H-1,2,3-triazol-5-yl)-3-pyridyl]-6-oxo-N-[(1R)-2,2,2-trideuterio-1-[3-(1,1-difluoro-2-hydroxy-ethyl)-2-fluoro-phenyl]ethyl]pyridazine-3-carboxamide] are under 50 nM and under 50 nM.
In the same order, the values of `C[C@@H](NC(=O)c1cc(C2CCCCC2)c(=O)n(-c2cncc(-c3cnnn3C)c2)n1)c1cccc(C(F)(F)F)c1F` [Example 1-65, N-{(R)-1-[2-fluoro-3-(trifluoromethyl)phenyl]ethyl}-5-cyclohexyl-1-[5-(1-methyl-1H-1,2,3-triazol-5-yl)-3-pyridyl]-6-oxo-1,6-dihydropyridazine-3-carboxamide] are 50 to 150 nM and over 150 nM.
